Measurements reported in patent US8629166B2, “5-cycloalkyl- or 5-heterocyclyl-nicotinamides” (Hoffmann-La Roche Inc., priority 2011, dated 2014).
pEC50: −log10 of the molar value.

What was measured:
ABCA1 protein = test: Detection of upregulation of ABCA1 protein in cells (ApoA-I binding, high content image analysis); assay type: cell-based; settings: THP-1 macrophage cells; for % increase of ABCA1 at 3 μM: compound at 3 μM, 24 hrs; for pEC50: ABCA1 protein increasing efficacy
Experimental: Detection of Upregulation of ABCA1 Protein in Cells
The ability of compounds of the invention to increase the level of ABCA1 protein is determined in replicate cultures of THP-1 macrophage cells in 96-well microplates. Cells are plated at an initial density of 100,000 cells/well in 100 μl medium and differentiated to adherent macrophages with the addition of PMA (100 nM) for 68 hrs in 10% fetal bovine serum, 3 μl/L of b-mercaptoethanol, RPMI-1640 medium. Then, cells are incubated with RPMI-1640 medium containing 1% FCS, 25 μg/ml acetylated LDL, for 24 hours at 37° C. Following incubation with acetylated LDL, cells are washed twice with 50 μl PBS and incubated with 100 μl of RPMI-1640 medium containing the compound of interest solubilized in DMSO for an additional 24 hrs. The final DMSO concentration in presence of cells is maintained at 0.5%. ApoA-I binding assay using High Content Image Analysis is initiated by replacing with fresh medium, RPMI without Phenol Red, 0.2% BSA containing AlexaFluor®647 labeled ApoA-I for 2 h/37° C./5% CO2. Then, cells are fixed with 4% Formaldehyde in PBS (15 min, RT). Following Nuclei are stained with Hoechst solution (3 μM PBS) and Cytoplasm with Cell Mask Blue (2 μg/ml PBS), 15 min, RT. Finally the stained cells are fixed with a second round of formaldehyde treatment. Fixed stained cells are washed and kept in PBS at 4° C. and can be read immediately until one month after preparation.
The Alexa Fluor 647-labeled Apolipoprotein A-I (20 nM) was prepared as follows: Human recombinant Apolipoprotein A-I (ApoA-I) was exchanged to a buffer of 0.02 M NaHCO3 at pH 8.2 on an NAP desalting column (GE Healthcare) and brought to a concentration to 40 μM (1.13 mg/ml) by adjustment with the same buffer. The ApoA-I was fluorescently labeled by incubation with Alexa Fluor carboxylic acid succimidyl ester (Alexa Fluor 647, Invitrogen A-20006) at a 2:1 molar ratio (Alexa to ApoA-I) for 1 h under shaking at RT. The remaining unconjugated label was removed by buffer exchange to 0.02M NaHCO3 at pH 8.2.
Imaging and data collection were performed on an OPERA confocal microplate imaging reader using a 20× water immersion objective and UV360 or 405 laser to identify the cell nuclei and a 635 laser to identify the fluorescent ApoA-I. Eight fields of view are captured per well. Image capture and analysis was performed with the Acapella software. Background fluorescence detected in control wells without ApoA-I was subtracted.
Using XLfit3 program (ID Business Solutions Ltd. UK), the model 205 for Dose Response One Site is used to calculate the EC50 values. […] Particularly, the compounds of the present invention have EC50 values in a range of 0.1 μM to 3 μm.

human CB2 receptor = target: T1, human CB2 receptor (Homo sapiens, UniProt P34972); test: CB2 receptor affinity ([3H]-CP-55,940 displacement, HEK cell membranes); assay type: binding; settings: displacement of [3H]-CP-55,940 at 10 μM
T1 construct: expressed in transfected cells; host or cells: human embryonic kidney (HEK) cells, Semliki Forest Virus system, membrane preparation
Experimental: (§1) CB1 and CB2 Receptor Affinity
(§2) The affinity of the compounds of the invention for cannabinoid CB2 receptors was determined using membrane preparations of human embryonic kidney (HEK) cells in which the human CB2 receptor is transiently transfected using a Semliki Forest Virus system in conjunction with [^3H]-CP-55,940 as radioligand. After incubation of freshly prepared cell membrane preparation with the [^3H]-ligand, with or without addition of compounds of the invention, separation of bound and free ligand was performed by filtration over glass fiber filters. Radioactivity on the filter was measured by scintillation counting.
(§3) The ability of the compounds to displace the radioligand [^3H]-CP-55,940 was measured at a concentration of 10 μM and values provided as [% inhibition @ 10 μM] both for the CB1 and CB2 receptor assay, The lower % inhibition is, the lower the likelihood of side effects based on CB1 or CB2 receptor inhibition is.

human CB1 receptor = target: T2, human CB1 receptor (Homo sapiens, UniProt P21554); test: CB1 receptor affinity ([3H]-CP-55,940 displacement, HEK cell membranes); assay type: binding; settings: displacement of [3H]-CP-55,940 at 10 μM
T2 construct: expressed in transfected cells; host or cells: human embryonic kidney (HEK) cells, Semliki Forest Virus system, membrane preparation
Experimental: as §1
as §2, with “cannabinoid” for “cannabinoid CB2”, “CB1” for “CB2”, “[3H]-CP-55,940” for “[^3H]-CP-55,940”
as §3

T1 sequence (P34972 whole entry): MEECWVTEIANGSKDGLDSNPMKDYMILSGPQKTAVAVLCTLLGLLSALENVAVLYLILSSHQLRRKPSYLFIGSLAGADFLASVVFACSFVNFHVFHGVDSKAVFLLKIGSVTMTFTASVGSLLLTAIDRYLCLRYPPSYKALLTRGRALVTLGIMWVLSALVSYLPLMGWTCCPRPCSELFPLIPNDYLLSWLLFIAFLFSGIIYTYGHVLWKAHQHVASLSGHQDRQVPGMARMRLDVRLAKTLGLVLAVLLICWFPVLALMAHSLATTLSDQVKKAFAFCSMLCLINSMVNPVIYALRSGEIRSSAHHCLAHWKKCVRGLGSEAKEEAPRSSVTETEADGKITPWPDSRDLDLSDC
T2 sequence (P21554 whole entry): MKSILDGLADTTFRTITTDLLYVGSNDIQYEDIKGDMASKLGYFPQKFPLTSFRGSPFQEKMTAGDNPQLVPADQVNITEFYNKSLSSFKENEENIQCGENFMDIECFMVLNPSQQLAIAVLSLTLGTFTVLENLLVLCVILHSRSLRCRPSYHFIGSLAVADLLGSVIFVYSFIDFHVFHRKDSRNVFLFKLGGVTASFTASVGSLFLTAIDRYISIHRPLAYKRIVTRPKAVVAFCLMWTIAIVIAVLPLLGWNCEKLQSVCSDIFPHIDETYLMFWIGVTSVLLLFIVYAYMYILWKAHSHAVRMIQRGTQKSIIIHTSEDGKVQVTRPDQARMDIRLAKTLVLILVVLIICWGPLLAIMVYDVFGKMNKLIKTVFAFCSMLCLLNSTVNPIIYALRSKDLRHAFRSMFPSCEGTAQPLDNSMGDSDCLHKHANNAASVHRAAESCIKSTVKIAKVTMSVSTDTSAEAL

| SMILES | % increase of ABCA1 at 3 μM (ABCA1 protein) | CB2 receptor affinity [% inhibition @ 10 μM] (human CB2 receptor) | CB1 receptor affinity [% inhibition @ 10 μM] (human CB1 receptor) | pEC50 (ABCA1 protein) |
| --- | --- | --- | --- | --- |
| O=C(Nc1ccncn1)c1cnc(OCC(F)(F)F)c(C2CCCC2)c1 [Example 23, 5-cyclopentyl-N-pyrimidin-4-yl-6-(2,2,2-trifluoro-ethoxy)-nicotinamide] | >45% @ 3 μM | −3 % inhibition | 31 % inhibition | – |
| Cc1noc(CNC(=O)c2cnc(OCC(F)(F)F)c(C3CCCCC3)c2)n1 [Example 14, 5-cyclohexyl-N-(3-methyl-[1,2,4]oxadiazol-5-ylmethyl)-6-(2,2,2-trifluoro-ethoxy)-nicotinamide] | >45% @ 3 μM | 3 % inhibition | 34 % inhibition | – |
| O=C(Nc1cccnc1)c1cnc(OCC(F)(F)F)c(C2CCCCC2)c1 [Example 6, 5-cyclohexyl-N-pyridin-3-yl-6-(2,2,2-trifluoro-ethoxy)-nicotinamide] | – | 2 % inhibition | 17 % inhibition | 5.47 |
| O=C(Nc1cncnc1)c1cnc(OCC(F)(F)F)c(C2CCCCC2)c1 [Example 19, 5-cyclohexyl-N-pyrimidin-5-yl-6-(2,2,2-trifluoro-ethoxy)-nicotinamide] | >45% @ 3 μM | −11 % inhibition | 20 % inhibition | – |
| O=C(Nc1cncnc1)c1cnc(OCC(F)(F)F)c(C2CCCC2)c1 [Example 22, 5-cyclopentyl-N-pyrimidin-5-yl-6-(2,2,2-trifluoro-ethoxy)-nicotinamide] | >45% @ 3 μM | −11 % inhibition | 12 % inhibition | – |
| O=C(Nc1cnccn1)c1cnc(OCC(F)(F)F)c(C2CCCCC2)c1 [Example 27, 5-cyclohexyl-N-pyrazin-2-yl-6-(2,2,2-trifluoro-ethoxy)-nicotinamide] | >45% @ 3 μM | 11 % inhibition | 18 % inhibition | – |
| O=C(Nc1cccnc1)c1cnc(OCC(F)(F)F)c(C2=CCCCC2)c1 [Example 1, 5-cyclohex-1-enyl-N-pyridin-3-yl-6-(2,2,2-trifluoro-ethoxy)-nicotinamide] | – | 5 % inhibition | 33 % inhibition | 6.29 |
| O=C(Nc1ccnnc1)c1cnc(OCC(F)(F)F)c(C2CCCC2)c1 [Example 26, 5-cyclopentyl-N-pyridazin-4-yl-6-(2,2,2-trifluoro-ethoxy)-nicotinamide] | >45% @ 3 μM | −2 % inhibition | 24 % inhibition | – |
| O=C(NCc1ccn(CC2CC2)n1)c1cnc(OCC(F)(F)F)c(C2CCCCC2)c1 [Example 15, 5-cyclohexyl-N-(1-cyclopropylmethyl-1H-pyrazol-3-ylmethyl)-6-(2,2,2-trifluoro-ethoxy)-nicotinamide] | >45% @ 3 μM | 14 % inhibition | 49 % inhibition | – |
